# How the values were obtained:
# [1] = tested on: formalin-induced short- and long-phase pain; details: rat, dose of 39.3 mg/kg by subcutaneous route
# [2] = tested on: abdominal pain by irritation and distension of the colon; details: rats, from 13.1 mg/kg and at doses of 26.2 mg/kg by subcutaneous route
structure (smiles),measurement,setting,value
CC[C@@](COC(=O)c1cc(OC)c(OC)c(OC)c1)(c1ccccc1)N(C)C(=O)OCc1ccc(OC)cc1 [Example 4],short- and long-phase activity,[1],demonstrated short- and long-phase activity
same,activity in abdominal pain test,[2],demonstrated activity

# Source: patent US8217075B2, “2-amino-2-phenyl-alkanol derivatives, their preparation and pharmaceutical compositions containing them” (Oroxcell, priority 2008, dated 2012)
